Data set [1] deals with T1, Muscarinic acetylcholine receptor M5 (Homo sapiens, UniProt P08912).
T1 sequence (P08912 whole entry): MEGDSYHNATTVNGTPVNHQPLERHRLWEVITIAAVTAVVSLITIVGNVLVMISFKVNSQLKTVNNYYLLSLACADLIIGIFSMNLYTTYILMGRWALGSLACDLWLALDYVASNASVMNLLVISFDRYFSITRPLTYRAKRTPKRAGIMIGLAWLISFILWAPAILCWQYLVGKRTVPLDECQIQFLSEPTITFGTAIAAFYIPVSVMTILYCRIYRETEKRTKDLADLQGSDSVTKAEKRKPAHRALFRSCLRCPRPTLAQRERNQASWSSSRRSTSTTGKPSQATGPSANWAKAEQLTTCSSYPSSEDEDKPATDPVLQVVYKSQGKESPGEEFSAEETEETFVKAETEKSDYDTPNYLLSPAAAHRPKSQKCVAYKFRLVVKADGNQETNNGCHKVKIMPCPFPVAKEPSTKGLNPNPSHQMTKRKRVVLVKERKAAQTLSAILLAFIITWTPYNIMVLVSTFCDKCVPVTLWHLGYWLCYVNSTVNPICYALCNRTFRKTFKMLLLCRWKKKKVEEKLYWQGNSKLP
The class given is cell membranes, CHO-K1, Membrane. The conditions noted are these: cho-k1.

In data set [2] the target is Cytochrome P450 2E1 (Homo sapiens, UniProt P05181). Particulars: bti-tn-5b1-4. Note: in other assays of this panel Not Active means under 50% inhibition at 10 µM.
The target of data set [3] is Acetylcholinesterase (Homo sapiens, UniProt P22303). As to the kind of experiment: DRUGMATRIX: Acetylcholinesterase enzyme inhibition (substrate: acetylthiocholine). The format is cell-based, HEK293. Particulars: hek293; Not Active = under 50% inhibition at 10 µM.
Data set [4] can be described thus: DRUGMATRIX: Calcium Channel Type L, Benzothiazepine radioligand binding (ligand: [3H] Diltiazem). The format is cell membranes, Rattus norvegicus, Wistar, Brain, Membrane. The conditions noted are these: Not Active = under 50% inhibition at 10 µM.
Data set [5] deals with Epidermal growth factor receptor (Homo sapiens, UniProt P00533). The data set is described as follows: DRUGMATRIX: Protein Tyrosine Kinase, EGF Receptor enzyme inhibition (substrate: Poly(Glu:Tyr)). The format is cell-based, Insect cells. The conditions noted are these: insect cells; Not Active = under 50% inhibition at 10 µM.
Data set [6] in a line: DRUGMATRIX: Tumor Necrosis Factor (TNF), Non-Selective radioligand binding (ligand: [125I] TNF-alpha). The class given is cell membranes, Membrane. The conditions noted are these: u-937; Not Active = under 50% inhibition at 10 µM.

Where a SMILES comes first, the peptide text is derived from it. Bridges are numbered along the chain shown (N, C = ends). [ ]: non-standard residue; d: D form. The star is where a group is joined. Threoninol(2S,3R) = C[C@@H](O)[C@H](CO)N*

Epidermal growth factor receptor, sequence (P00533 whole entry): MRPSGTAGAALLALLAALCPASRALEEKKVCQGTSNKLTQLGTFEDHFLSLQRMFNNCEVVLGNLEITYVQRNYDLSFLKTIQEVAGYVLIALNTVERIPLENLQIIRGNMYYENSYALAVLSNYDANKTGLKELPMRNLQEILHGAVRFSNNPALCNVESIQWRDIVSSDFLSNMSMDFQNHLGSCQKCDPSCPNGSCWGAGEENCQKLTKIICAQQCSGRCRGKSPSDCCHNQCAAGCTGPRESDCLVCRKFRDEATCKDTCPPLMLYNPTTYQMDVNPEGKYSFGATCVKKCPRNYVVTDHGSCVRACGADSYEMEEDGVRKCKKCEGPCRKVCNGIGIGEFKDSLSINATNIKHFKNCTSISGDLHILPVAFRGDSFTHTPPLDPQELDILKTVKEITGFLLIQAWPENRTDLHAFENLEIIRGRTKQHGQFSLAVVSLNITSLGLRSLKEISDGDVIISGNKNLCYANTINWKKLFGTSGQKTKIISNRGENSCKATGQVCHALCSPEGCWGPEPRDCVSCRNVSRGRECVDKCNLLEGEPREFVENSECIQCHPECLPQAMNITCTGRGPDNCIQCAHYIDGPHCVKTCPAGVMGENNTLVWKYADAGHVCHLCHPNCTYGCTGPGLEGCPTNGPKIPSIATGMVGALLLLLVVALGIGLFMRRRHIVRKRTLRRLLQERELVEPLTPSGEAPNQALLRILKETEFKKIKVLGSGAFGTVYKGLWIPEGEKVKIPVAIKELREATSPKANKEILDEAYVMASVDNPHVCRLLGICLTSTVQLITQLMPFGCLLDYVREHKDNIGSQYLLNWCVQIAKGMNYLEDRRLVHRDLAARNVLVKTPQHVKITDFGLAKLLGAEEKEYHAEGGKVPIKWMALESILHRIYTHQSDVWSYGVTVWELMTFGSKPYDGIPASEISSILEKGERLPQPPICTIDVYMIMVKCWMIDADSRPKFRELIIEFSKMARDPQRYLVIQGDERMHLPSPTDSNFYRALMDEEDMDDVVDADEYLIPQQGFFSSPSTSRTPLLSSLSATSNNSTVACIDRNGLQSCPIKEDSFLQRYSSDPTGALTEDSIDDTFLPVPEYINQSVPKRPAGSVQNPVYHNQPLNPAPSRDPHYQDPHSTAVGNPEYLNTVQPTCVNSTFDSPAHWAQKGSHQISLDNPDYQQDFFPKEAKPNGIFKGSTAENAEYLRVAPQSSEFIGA
Cytochrome P450 2E1, sequence (P05181 whole entry): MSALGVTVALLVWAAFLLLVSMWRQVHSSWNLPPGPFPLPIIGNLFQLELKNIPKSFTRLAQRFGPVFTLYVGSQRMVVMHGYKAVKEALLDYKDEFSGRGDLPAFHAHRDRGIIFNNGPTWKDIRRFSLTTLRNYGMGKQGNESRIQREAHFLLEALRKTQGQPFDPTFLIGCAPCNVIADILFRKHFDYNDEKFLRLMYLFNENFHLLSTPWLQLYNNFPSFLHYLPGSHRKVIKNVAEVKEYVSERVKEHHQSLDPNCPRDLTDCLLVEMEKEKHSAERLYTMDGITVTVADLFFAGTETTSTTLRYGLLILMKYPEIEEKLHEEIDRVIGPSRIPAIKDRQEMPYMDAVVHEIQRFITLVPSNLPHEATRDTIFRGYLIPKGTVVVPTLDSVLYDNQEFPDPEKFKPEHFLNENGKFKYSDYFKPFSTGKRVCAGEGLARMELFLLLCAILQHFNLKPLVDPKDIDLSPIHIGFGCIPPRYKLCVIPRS
Acetylcholinesterase, sequence (P22303 whole entry): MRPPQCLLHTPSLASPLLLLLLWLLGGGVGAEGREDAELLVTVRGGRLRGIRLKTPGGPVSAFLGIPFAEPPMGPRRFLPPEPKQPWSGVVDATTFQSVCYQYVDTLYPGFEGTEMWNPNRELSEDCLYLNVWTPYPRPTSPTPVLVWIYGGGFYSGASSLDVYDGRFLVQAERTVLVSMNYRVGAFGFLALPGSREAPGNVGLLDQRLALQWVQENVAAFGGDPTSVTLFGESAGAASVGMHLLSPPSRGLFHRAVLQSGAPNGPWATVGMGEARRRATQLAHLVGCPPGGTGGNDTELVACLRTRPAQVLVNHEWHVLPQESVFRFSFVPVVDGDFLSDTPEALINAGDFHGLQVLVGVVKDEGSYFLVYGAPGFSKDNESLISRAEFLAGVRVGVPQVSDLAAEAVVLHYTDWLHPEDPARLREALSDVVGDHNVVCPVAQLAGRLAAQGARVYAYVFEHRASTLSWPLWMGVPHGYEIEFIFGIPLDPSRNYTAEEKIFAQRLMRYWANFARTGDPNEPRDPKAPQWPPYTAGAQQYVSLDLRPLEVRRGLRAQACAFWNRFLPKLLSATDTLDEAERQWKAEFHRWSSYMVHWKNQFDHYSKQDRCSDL

For orientation: IC50 means the point on the concentration scale where inhibition reaches its midpoint. As usually defined, the Ki is the equilibrium dissociation constant of an inhibitor or competing ligand from its target. For `COc1ccccc1C(=O)N1CCC(Cc2ccccc2)CC1`, the half-maximal inhibitory concentration (IC50) result in data set [1], in data set [2], in data set [3], in data set [4], in data set [5] and in data set [6] was “Not Active” throughout. In addition, the inhibition constant (Ki) result in data set [2], in data set [4] and in data set [6] was “Not Active” throughout.

For the compound `Cc1ccccc1C(=O)N1CCC(Cc2ccccc2)CC1`, the concentration for half-maximal inhibition (IC50) result in data set [1], in data set [2], in data set [3], in data set [4], in data set [5] and in data set [6] was “Not Active” each time. Further, the inhibitory constant (Ki) entry in data set [2], in data set [4] and in data set [6] was “Not Active” each time.

Turning to `O=C1CC[C@H](N2C(=O)c3ccccc3C2=O)C(=O)N1`, the IC50 result in data set [1], in data set [2], in data set [3], in data set [4], in data set [5] and in data set [6] was “Not Active” throughout. Besides, the Ki entry in data set [2], in data set [4] and in data set [6] was “Not Active” in each case.

For `N=C(Nc1ccccc1)Nc1ccccc1`, the IC50 entry in data set [1], in data set [2], in data set [3], in data set [4], in data set [5] and in data set [6] was “Not Active” each time. The Ki entry in data set [2], in data set [4] and in data set [6] was “Not Active” in each case.

As to `C[C@@H](O)[C@H](CO)NC(=O)[C@@H]1CSSC[C@H](NC(=O)[C@H](N)Cc2ccccc2)C(=O)N[C@@H](Cc2ccccc2)C(=O)N[C@H](Cc2c[nH]c3ccccc23)C(=O)N[C@@H](CCCCN)C(=O)N[C@@H]([C@@H](C)O)C(=O)N1` (H-[dF]CF[dW]KTC-{Threoninol(2S,3R)}; disulfide 2-7), the half-maximal inhibitory concentration (IC50) entry in data set [1], in data set [2], in data set [3], in data set [4], in data set [5] and in data set [6] was “Not Active” in each case. Moreover, the Ki result in data set [2], in data set [4] and in data set [6] was “Not Active” in each case.

For the compound `S=C=Nc1cccc2ccccc12` [1-NAPHTHYLISOTHIOCYANATE], the IC50 result in data set [1], in data set [2], in data set [3], in data set [4], in data set [5] and in data set [6] was “Not Active” each time. The Ki result in data set [2], in data set [4] and in data set [6] was “Not Active” in each case.

`C[C@](O)(CS(=O)(=O)c1ccc(F)cc1)C(=O)Nc1ccc(C#N)c(C(F)(F)F)c1` [(R)-BICALUTAMIDE]: the IC50 result in data set [1], in data set [2], in data set [3], in data set [4], in data set [5] and in data set [6] was “Not Active” each time. In addition, the Ki result in data set [2], in data set [4] and in data set [6] was “Not Active” in each case.

Turning to `CCCC(=O)Nc1ccc(OCC(O)CNC(C)C)c(C(C)=O)c1` (stereo not given) [ACEBUTOLOL], the half-maximal inhibitory concentration (IC50) entry in data set [1], in data set [2], in data set [3], in data set [4], in data set [5] and in data set [6] was “Not Active” each time. For the same compound, the Ki entry in data set [2], in data set [4] and in data set [6] was “Not Active” in each case.

For the compound `CC(=O)Nc1ccc(O)cc1` [ACETAMINOPHEN], the IC50 result in data set [1], in data set [2], in data set [3], in data set [4], in data set [5] and in data set [6] was “Not Active” each time. Besides, the inhibition constant (Ki) entry in data set [2], in data set [4] and in data set [6] was “Not Active” throughout.

`COc1cc2c(c3oc(=O)c4c(c13)CCC4=O)[C@@H]1C=CO[C@@H]1O2` [AFLATOXIN]: the half-maximal inhibitory concentration (IC50) result in data set [1], in data set [2], in data set [3], in data set [4], in data set [5] and in data set [6] was “Not Active” each time. The Ki entry in data set [1], in data set [2], in data set [3], in data set [4], in data set [5] and in data set [6] was “Not Active” in each case.

Turning to `N=C(N)NC(=O)c1nc(Cl)c(N)nc1N` [AMILORIDE], the half-maximal inhibitory concentration (IC50) entry in data set [1], in data set [2], in data set [3], in data set [4], in data set [5] and in data set [6] was “Not Active” in each case. The Ki entry in data set [2], in data set [4] and in data set [6] was “Not Active” in each case.

Consider `Cc1cc(=O)n(-c2ccccc2)n1C` [ANTIPYRINE], for which the IC50 entry in data set [1], in data set [2], in data set [3], in data set [4], in data set [5] and in data set [6] was “Not Active” each time. Further, the Ki entry in data set [2], in data set [4] and in data set [6] was “Not Active” each time.

In the case of `O=NN(CCCl)C(=O)NCCCl` [CARMUSTINE], the 50% inhibitory concentration (IC50) entry in data set [1], in data set [3], in data set [4], in data set [5] and in data set [6] was “Not Active” throughout. For the same compound, the Ki result in data set [4] and in data set [6] was “Not Active” in each case.

Consider `O=C(N[C@H](CO)[C@H](O)c1ccc([N+](=O)[O-])cc1)C(Cl)Cl` [CHLORAMPHENICOL], for which the concentration for half-maximal inhibition (IC50) entry in data set [1], in data set [3], in data set [4], in data set [5] and in data set [6] was “Not Active” each time. Moreover, the Ki entry in data set [4] and in data set [6] was “Not Active” in each case.

Regarding `C[C@@H]1C[C@@H]([C@H](O)CC2CC(=O)NC(=O)C2)C(=O)[C@@H](C)C1` [CYCLOHEXIMIDE], the IC50 entry in data set [1], in data set [3], in data set [4], in data set [5] and in data set [6] was “Not Active” throughout. For the same compound, the inhibition constant Ki result in data set [4] and in data set [6] was “Not Active” each time.

As to `C/C=C/C[C@@H](C)[C@@H](O)[C@H]1C(=O)N[C@@H](CC)C(=O)N(C)CC(=O)N(C)[C@@H](CC(C)C)C(=O)N[C@@H](C(C)C)C(=O)N(C)[C@@H](CC(C)C)C(=O)N[C@@H](C)C(=O)N[C@H](C)C(=O)N(C)[C@@H](CC(C)C)C(=O)N(C)[C@@H](CC(C)C)C(=O)N(C)[C@@H](C(C)C)C(=O)N1C` [CYCLOSPORINE], the IC50 result in data set [1], in data set [3], in data set [4], in data set [5] and in data set [6] was “Not Active” throughout. The inhibition constant Ki entry in data set [4] and in data set [6] was “Not Active” throughout.

As to `NC(=O)NO` [HYDROXYUREA], the 50% inhibitory concentration (IC50) entry in data set [1], in data set [3], in data set [4], in data set [5] and in data set [6] was “Not Active” in each case. The inhibition constant (Ki) entry in data set [4] and in data set [6] was “Not Active” in each case.

In the case of `CCc1c2c(nc3ccc(OC(=O)N4CCC(N5CCCCC5)CC4)cc13)-c1cc3c(c(=O)n1C2)COC(=O)[C@]3(O)CC` [IRINOTECAN], the concentration for half-maximal inhibition (IC50) result in data set [1], in data set [2], in data set [4], in data set [5] and in data set [6] was “Not Active” each time. Besides, the inhibition constant Ki result in data set [2], in data set [4] and in data set [6] was “Not Active” throughout.

As to `COc1ccc2cc([C@H](C)C(=O)O)ccc2c1` [NAPROXEN], the IC50 entry in data set [1], in data set [4], in data set [5] and in data set [6] was “Not Active” each time. The Ki result in data set [4] and in data set [6] was “Not Active” each time.

`CCn1cc(C(=O)O)c(=O)c2cc(F)c(N3CCN(C)CC3)cc21` [PEFLOXACIN]: the half-maximal inhibitory concentration (IC50) result in data set [1], in data set [3], in data set [4], in data set [5] and in data set [6] was “Not Active” throughout. Further, the inhibition constant Ki result in data set [4] and in data set [6] was “Not Active” throughout.

Take `OC(CCN1CCCCC1)(c1ccccc1)C1CCCCC1` (stereo not given) [TRIHEXYPHENIDYL]: the half-maximal inhibitory concentration (IC50) entry in data set [2] is “Not Active”; in data set [3], “Not Active”; in data set [4] (read-out: IC50), 4.81 µM; in data set [5] it was “Not Active”; in data set [6] it was “Not Active”. For the same compound, the Ki result in data set [2] was “Not Active”; in data set [4] (read-out: Ki), 4.28 µM; in data set [6] it was “Not Active”.

The values above are taken from ChEMBL document CHEMBL1909046, “DrugMatrix in vitro pharmacology data”.
